For one data set, the target named is human DLK (Homo sapiens (Human), UniProt Q12852). As to the kind of experiment: DLK Kd determination (KINOMEscan KdELECT, DiscoveRx). It counts as binding.
Data set [1] is described as follows: Metabolic stability in liver microsomes, human. The following applies: 0.5 mg/mL microsomes, NADPH, 45 minutes, 37° C., read-out: Half-life in liver microsomes (t1/2, minutes). It counts as in vitro ADME. How it is done: (§1) The test compound was incubated with liver microsomes (0.5 mg/mL) from CD-1 mouse, Sprague Dawley rat, Beagle dog, Cynomolgus monkey, and human in the presence of NADPH for 45 minutes at 37° C. The % parent remaining over time was determined by LC-MS/MS, using peak area ratios. Half-life (t1/2) was calculated using the following equation: t1/2=ln2/k, where k is the rate constant of parent decay over time (slope of the plot of log[% parent remaining] versus time).
(Liver microsomes are a subcellular fraction often used to study metabolism.)

The nature of data set [2]: Metabolic stability in liver microsomes, rat. It counts as in vitro ADME. The following applies: Sprague Dawley, 0.5 mg/mL microsomes, NADPH, 45 minutes, 37° C., read-out: Half-life in liver microsomes (t1/2, minutes). Here is the method:
as §1

The nature of data set [3]: Metabolic stability in liver microsomes, mouse. It counts as in vitro ADME, CD-1 mouse. The following applies: CD-1, liver microsomes, 0.5 mg/mL microsomes, NADPH, 45 minutes, 37° C., read-out: Half-life in liver microsomes (t1/2, minutes). How it is done: as §1
A short description of data set [4]: Mouse pharmacokinetics, single dose. It counts as in vivo, male C57BL/6 mice. The following applies: for Kp / unbound brain-to-plasma ratio (Kp,uu): brain and plasma, po, 10 mg/kg, based on AUC; for Kp / unbound brain-to-plasma ratio (Kp,uu) / AUC(0-t) / Cmax / bioavailability: oral dose 10 mg/kg; for Kp: read-out: Brain/Plasma Ratio; for unbound brain-to-plasma ratio (Kp,uu): read-out: Free Brain/Plasma Ratio; for clearance / half-life / Vd: in vivo; for Vd: read-out: Vss; for AUC(0-t) / Cmax / bioavailability: plasma; for brain penetration, in words: relative to 13 and 14b and to 1a, 4b, 8a and 9b; for clearance in mice, comparison in words / half-life in mice, comparison in words: relative to comparator compounds 13 or 14b.

Data set [5] is described as follows: Metabolic stability in liver microsomes, monkey. As to conditions: 0.5 mg/mL microsomes, NADPH, 45 minutes, 37° C., read-out: Half-life in liver microsomes (t1/2, minutes). It counts as in vitro ADME, Cynomolgus monkey. Here is the method: as §1
A short description of data set [6]: Metabolic stability in liver microsomes, dog. It counts as in vitro ADME. The following applies: Beagle, 0.5 mg/mL microsomes, NADPH, 45 minutes, 37° C., read-out: Half-life in liver microsomes (t1/2, minutes). Here is the method: as §1
Data set [7] is described as follows: Rat pharmacokinetics, single dose. It counts as in vivo, Wistar Han rats. As to conditions: rat, in vivo, Wistar Han rats. How it is done:
Pharmacokinetics for compounds 13, 1a, and 9b were determined using single dosage of Wistar Han rats using techniques that are well known in the art.

The nature of data set [8]: Metabolic stability in liver microsome preparations, overall comparison. It counts as in vitro ADME. As to conditions: relative to comparator compounds 13 or 14/14b (WO2018207072). Here is the method:
as §1

Setting [9] is: male, C57BL/6, mouse, male C57BL/6 mice.
Where [10] appears, read: mouse, male C57BL/6 mice, IV dose 0.3 mg/kg (1a, 4b, 13, 14b, 16; IV dose of 8a, 9b not stated).
Setting [11] is: full length human DLK fusion protein, qPCR readout, duplicate, read-out: Kd.
Setting [12] is: male, C57BL/6, mouse, iv, 1 mg/kg.

Where two headings read alike, the source gives them in different places.

Sequence of human DLK (Q12852 whole entry): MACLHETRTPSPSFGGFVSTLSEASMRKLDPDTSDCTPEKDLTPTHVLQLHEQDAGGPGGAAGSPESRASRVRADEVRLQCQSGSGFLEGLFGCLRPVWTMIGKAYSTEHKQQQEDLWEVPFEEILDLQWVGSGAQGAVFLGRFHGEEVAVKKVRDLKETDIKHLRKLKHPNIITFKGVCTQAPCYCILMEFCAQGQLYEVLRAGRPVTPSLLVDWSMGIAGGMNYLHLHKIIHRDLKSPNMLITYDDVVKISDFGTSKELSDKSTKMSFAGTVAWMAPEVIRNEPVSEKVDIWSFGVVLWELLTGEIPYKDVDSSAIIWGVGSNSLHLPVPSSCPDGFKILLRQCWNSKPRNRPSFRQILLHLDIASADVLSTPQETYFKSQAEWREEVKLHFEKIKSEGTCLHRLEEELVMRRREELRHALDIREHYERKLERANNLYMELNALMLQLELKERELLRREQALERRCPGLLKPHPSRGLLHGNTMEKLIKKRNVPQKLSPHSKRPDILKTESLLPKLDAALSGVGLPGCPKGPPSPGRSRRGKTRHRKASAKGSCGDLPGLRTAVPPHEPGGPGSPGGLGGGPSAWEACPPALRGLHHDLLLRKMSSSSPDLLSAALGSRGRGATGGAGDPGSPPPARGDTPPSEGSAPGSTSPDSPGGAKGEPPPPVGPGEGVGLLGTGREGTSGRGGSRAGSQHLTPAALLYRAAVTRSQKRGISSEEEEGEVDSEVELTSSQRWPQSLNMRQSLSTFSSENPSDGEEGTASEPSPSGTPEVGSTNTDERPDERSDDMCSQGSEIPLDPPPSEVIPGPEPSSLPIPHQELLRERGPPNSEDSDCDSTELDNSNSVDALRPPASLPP
Experimental for human DLK: The DLK dissociation constants (Kd) have been determined in the KINOMEscan KdELECT Service at DiscoveRx.
A fusion protein of full length of human DLK (amino acids 1-859) and the DNA binding domain of NFkB was expressed in transiently transfected HEK293 cells. From these HEK 293 cells, extracts were prepared in M-PER extraction buffer (Pierce) in the presence of Protease Inhibitor Cocktail Complete (Roche) and Phosphatase Inhibitor Cocktail Set II (Merck) per manufacturers' instructions. The DLK fusion protein was labeled with a chimeric double-stranded DNA tag containing the NFkB binding site (5′-[sequence]-3′, SEQ ID NO:1) fused to an amplicon for qPCR readout, which was added directly to the expression extract (the final concentration of DNA-tag in the binding reaction is 0.1 nM).
The liganded beads were blocked with excess biotin and washed with blocking buffer (SeaBlock (Pierce), 1% BSA, 0.05% Tween 20, 1 mM DTT) to remove unbound ligand and to reduce nonspecific binding.
Extracts were used directly in binding assays without any enzyme purification steps at a >10,000-fold overall stock dilution (final DNA-tagged enzyme concentration <0.1 nM). Extracts were loaded with DNA-tag and diluted into the binding reaction in a two step process. First extracts were diluted 1:100 in 1× binding buffer (PBS/0.05% Tween 20/10 mM DTT/0.1% BSA/2 μg/ml sonicated salmon sperm DNA) containing 10 nM DNA-tag. This dilution was allowed to equilibrate at room temperature for 15 minutes and then subsequently diluted 1:100 in 1× binding buffer. Test compounds were prepared as 111× stocks in 100% DMSO. Kds were determined using an 11-point 3-fold compound dilution series with three DMSO control points. […] The compounds were then diluted directly into the assays such that the final concentration of DMSO was 0.9%. All reactions performed in polypropylene 384-well plates. Each was a final volume of 0.02 mL. Assays were incubated with shaking for 1 hour at room temperature. Then the beads were pelleted and washed with wash buffer (1×PBS, 0.05% Tween 20) to remove displaced kinase and test compound. […] The kinase concentration in the eluates was measured by qPCR. qPCR reactions were assembled by adding 2.5 μL of kinase eluate to 7.5 μL of qPCR master mix containing 0.15 μM amplicon primers and 0.15 μM amplicon probe.
Test compounds were prepared as 111× stocks in 100% DMSO. Kds were determined using an 11-point 3-fold compound dilution series with three DMSO control points. […] The compounds were then diluted directly into the assays such that the final concentration of DMSO was 0.9%. The Kds were determined using a compound top concentration of 30,000 nM. Kd measurements were performed in duplicate.
Binding constants (Kds) were calculated with a standard dose-response curve using the Hill equation:
The Hill Slope was set to −1.

By Kd is commonly meant the concentration at which binding is half-saturated. In the case of `CC(C)[C@H](O)c1nc(-c2cnc(N)c(OC(F)(F)F)c2)cn1C12CC(F)(C1)C2` (single isomer, unassigned) [Example 3b], the dissociation constant (Kd) at human DLK (read-out: Kd) amounted to 0.24 nM.

`CC(C)[C@@H](O)c1nc(-c2cnc(N)c(C(F)(F)F)c2)cn1C12CC(N3CCC(F)(F)CC3)(C1)C2` (single isomer, unassigned) [Example 7a]: the values for the half-life in data set [1] and in [2] were 70 min and 566 min, respectively. For the same molecule, on human DLK (read-out: Kd), the Kd was 0.21 nM.

Usually clearance stands for a measure of how efficiently the substance is removed, as volume per time. By AUC(0-t) is commonly meant the area under the concentration-time curve up to a stated or last time point. Usually Cmax stands for the peak of the concentration-time curve. Take `CC(C)[C@@H](O)c1nc(-c2cnc(N)c(OC(F)(F)F)c2)cn1C12CC(N3CCC(F)(F)CC3)(C1)C2` (single isomer, unassigned) [Example 8a]: in [1], the half-life was 297 min. For the same molecule, in data set [2], the half-life came to 201 min. Besides, on human DLK (read-out: Kd), the Kd came to 0.5 nM. Also, the half-life in data set [3] was determined as 322 min. Also, in [4] (setting [9]), the Kp came out at 0.82 and the unbound brain-to-plasma ratio (Kp,uu) is 0.38. Further, in data set [4] (setting [10]), the clearance was found to be 7 mL/min/kg, the half-life was 6.7 h and the Vd was 3.8 L/kg. Further, in [4] (mouse, male C57BL/6 mice), the AUC(0-t) turned out to be 41.4 µM·h, the peak level (Cmax) was 3.54 µM and the bioavailability turned out to be 106%.

`Nc1ncc(-c2cn(C34CC(N5CCC(F)(F)CC5)(C3)C4)c([C@@H](O)C(F)(F)F)n2)cc1C(F)(F)F` (single isomer, unassigned) [Example 10a]: the Kd at human DLK (read-out: Kd) is 0.62 nM.

As to `Nc1ncc(-c2cn(C34CC(C3)C4)c([C@@H](O)C(F)(F)F)n2)cc1OC(F)(F)F` [Compound 13, (R)-1-(4-(6-amino-5-(trifluoromethoxy)-pyridin-3-yl)-1-(bicyclo[1.1.1]pentan-1-yl)-1H-imidazol-2-yl)-2,2,2-trifluoroethan-1-ol, reference compound], the half-life in data set [5] is 56 min; in data set [1], 121 min; in data set [6] it was 109 min; in data set [2] it was 77 min; in data set [3] it was 221 min; in data set [4] (setting [10]), 3.53 h. In data set [7] (IV dose 1 mg/kg), the half-life was 9.94 h. Further, the Kd at human DLK (setting [11]) was determined as 1.6 nM. For the same molecule, in data set [4] (setting [9]), the Kp came to 2.97. Further, the unbound brain-to-plasma ratio (Kp,uu) in data set [4] (setting [9]) was 1.54. Also, the clearance in data set [4] (setting [10]) came to 14.1 mL/min/kg; in data set [7] (IV dose 1 mg/kg) it was 12.1 mL/min/kg. Further, the Vd in data set [4] (setting [10]) turned out to be 4.6 L/kg; in data set [7] (IV dose 1 mg/kg, read-out: Vss) it was 7.9 L/kg. Moreover, the AUC(0-t) in data set [4] (mouse, male C57BL/6 mice) was determined as 14.4 µM·h; in data set [7] (oral dose 3 mg/kg), 7.59 µM·h. Moreover, the Cmax stood at 1.95 µM in [4] (mouse, male C57BL/6 mice) and 0.909 µM in [7] (oral dose 3 mg/kg). The bioavailability stood at 51% in data set [4] (mouse, male C57BL/6 mice) and 86.3% in data set [7] (oral dose 3 mg/kg).

`CC(C)C(O)c1nc(-c2cnc(N)c(C(F)(F)F)c2)cn1C12CC(C1)C2` (centres unmarked) [Compound 14, 1-(4-(6-amino-5-(trifluoromethyl)pyridin-3-yl)-1-(bicyclo[1.1.1]pentan-1-yl)-1H-imidazol-2-yl)-2-methylpropan-1-ol, reference compound]: the results for the half-life in data set [1] and in data set [2] were 41 min and 27 min, respectively. Also, on human DLK (setting [11]), the Kd is 0.3 nM.

As to `CC(C)[C@H](O)c1nc(-c2cnc(N)c(C(F)(F)F)c2)cn1C12CC(C1)C2` [Compound 14b, (S)-1-(4-(6-amino-5-(trifluoromethyl)pyridin-3-yl)-1-(bicyclo[1.1.1]pentan-1-yl)-1H-imidazol-2-yl)-2-methylpropan-1-ol, reference compound], the half-life in data set [5] was 7 min; in data set [1], 26 min; in data set [6] it was 154 min; in data set [2] it was 23 min; in data set [3] it was 16 min; in data set [4] (setting [10]), 0.7 h. In addition, the Kd on human DLK (setting [11]) came to 0.12 nM. The molecule further gave a clearance in [4] (setting [10]) of 76.7 mL/min/kg. Moreover, in [4] (setting [10]), the Vd was 3.72 L/kg. The AUC(0-t) in [4] (mouse, male C57BL/6 mice) stood at 3.62 µM·h. The molecule also had a Cmax in data set [4] (mouse, male C57BL/6 mice) of 3.38 µM. In data set [4] (mouse, male C57BL/6 mice), the bioavailability came to 61.2%.

For `CC(C)[C@H](O)c1nc(-c2cnc(N)c(OC(F)(F)F)c2)cn1C12CC(N3CCOCC3)(C1)C2` [Compound 15, (S)-1-(4-(6-amino-5-(trifluoromethoxy)pyridin-3-yl)-1-(3-morpholinobicyclo[1.1.1]pentan-1-yl)-1H-imidazol-2-yl)-2-methylpropan-1-ol, reference compound], in data set [1], the half-life is 80 min. In [2], the half-life stood at 3000 min. Besides, the “microsomal stability, comparison in words” value in [8] is given as “improved microsomal stability”. Moreover, the half-life in data set [3] is 1840 min. Moreover, in [4] (setting [9]), the Kp came to 0.24 and the unbound brain-to-plasma ratio (Kp,uu) was 0.16. Moreover, in [4] (setting [12]), the clearance is 12 mL/min/kg, the half-life is 5.4 h and the Vd was found to be 4.1 L/kg. The “brain penetration, in words” value in data set [4] (mouse) is “reduced brain penetration”. Moreover, in [4], the “clearance in mice, comparison in words” value is given as “reduced clearances” and the “half-life in mice, comparison in words” value is “longer half-lives”.

For the molecule `Nc1ncc(-c2cn(C34CC(N5CCOCC5)(C3)C4)c([C@@H](O)C(F)(F)F)n2)cc1OC(F)(F)F` [Compound 16, (R)-1-(4-(6-amino-5-(trifluoromethoxy)pyridin-3-yl)-1-(3-morpholinobicyclo[1.1.1]pentan-1-yl)-1H-imidazol-2-yl)-2,2,2-trifluoroethan-1-ol, reference compound], the half-life in data set [1] is 260 min. The half-life in [2] was 1500 min. For the same molecule, in data set [8], the “microsomal stability, comparison in words” value is recorded as “improved microsomal stability”. Also, the Kd at human DLK (setting [11]) came out at 0.36 nM. In data set [3], the half-life turned out to be 1040 min. In data set [4] (setting [9]), the Kp turned out to be 0.21 and the unbound brain-to-plasma ratio (Kp,uu) came to 0.16. Besides, in data set [4] (setting [10]), the clearance was 4.4 mL/min/kg, the half-life was 5.2 h and the Vd was 1.8 L/kg. Besides, in [4] (mouse, male C57BL/6 mice), the AUC(0-t) was determined as 70.3 µM·h, the Cmax stood at 11.9 µM and the bioavailability turned out to be 92.1%. In addition, the “brain penetration, in words” value in [4] (mouse) is “reduced brain penetration”. In addition, in data set [4], the “clearance in mice, comparison in words” value is “reduced clearances” and the “half-life in mice, comparison in words” value was “longer half-lives”.

At human DLK, `Nc1ncc(-c2cn(C34CC(F)(C3)C4)c([C@H](O)C(F)(F)F)n2)cc1OC(F)(F)F` [Example 1b, (S)-1-(4-(6-amino-5-(trifluoromethoxy)pyridin-3-yl)-1-(3-fluorobicyclo[1.1.1]pentan-1-yl)-1H-imidazol-2-yl)-2,2,2-trifluoroethanol] showed a Kd of 120 nM.

With `Nc1ncc(-c2cn(C34CC(F)(C3)C4)c([C@@H](O)C(F)(F)F)n2)cc1C(F)(F)F` [Example 2a, (R)-1-(4-(6-amino-5-(trifluoromethyl)pyridin-3-yl)-1-(3-fluorobicyclo[1.1.1]pentan-1-yl)-1H-imidazol-2-yl)-2,2,2-trifluoroethanol], at human DLK (read-out: Kd), the dissociation constant Kd was 4.4 nM.

Regarding `Nc1ncc(-c2cn(C34CC(F)(C3)C4)c(C(O)C3CC3)n2)cc1OC(F)(F)F` (centres unmarked) [Example 5, (4-(6-amino-5-(trifluoromethoxy)pyridin-3-yl)-1-(3-fluorobicyclo[1.1.1]pentan-1-yl)-1H-imidazol-2-yl)(cyclopropyl)methanol], the Kd at human DLK (read-out: Kd) was 5.2 nM.

For the molecule `Nc1ncc(-c2cn(C34CC(F)(C3)C4)c(C(O)C3CC3)n2)cc1C(F)(F)F` (centres unmarked) [Example 6, (4-(6-amino-5-(trifluoromethyl)pyridin-3-yl)-1-(3-fluorobicyclo[1.1.1]pentan-1-yl)-1H-imidazol-2-yl)(cyclopropyl)methanol], the dissociation constant Kd on human DLK (read-out: Kd) worked out at 7.7 nM.

In the case of `Nc1ncc(-c2cn(C34CC(N5CCC(F)(F)CC5)(C3)C4)c(C(O)C3CC3)n2)cc1OC(F)(F)F` (centres unmarked) [Example 11, (4-(6-amino-5-(trifluoromethoxy)pyridin-3-yl)-1-(3-(4,4-difluoropiperidin-1-yl)bicyclo[1.1.1]pentan-1-yl)-1H-imidazol-2-yl)(cyclopropyl)methanol], the Kd on human DLK (read-out: Kd) is 3.1 nM.

Regarding `Nc1ncc(-c2cn(C34CC(N5CCC(F)(F)CC5)(C3)C4)c(C(O)C3CC3)n2)cc1C(F)(F)F` (centres unmarked) [Example 12, (4-(6-amino-5-(trifluoromethyl)pyridin-3-yl)-1-(3-(4,4-difluoropiperidin-1-yl)bicyclo[1.1.1]pentan-1-yl)-1H-imidazol-2-yl)(cyclopropyl)methanol], the Kd on human DLK (read-out: Kd) was 2.9 nM.

(Values after patent US11560366B2, “Bicyclo[1.1.1]pentane inhibitors of dual leucine zipper (DLK) kinase for the treatment of disease” (Board of Regents, The University of Texas System, priority 2019, dated 2023).)
